Measured values published in patent publication US7125990B2, “Imidazolyl derivatives as corticotropin releasing factor inhibitors” (Bristol-Myers Squibb COmpany, priority 2001, dated 2006).

Biological target: T1, CRF1 receptors (Homo sapiens, UniProt P34998)
T1 construct: endogenous in cells; host or cells: IMR-32 cells, transformed with 2.5 µM 5'-bromo-2'-deoxyuridine for 10 days; membrane preparation
T1 sequence (P34998 24-415): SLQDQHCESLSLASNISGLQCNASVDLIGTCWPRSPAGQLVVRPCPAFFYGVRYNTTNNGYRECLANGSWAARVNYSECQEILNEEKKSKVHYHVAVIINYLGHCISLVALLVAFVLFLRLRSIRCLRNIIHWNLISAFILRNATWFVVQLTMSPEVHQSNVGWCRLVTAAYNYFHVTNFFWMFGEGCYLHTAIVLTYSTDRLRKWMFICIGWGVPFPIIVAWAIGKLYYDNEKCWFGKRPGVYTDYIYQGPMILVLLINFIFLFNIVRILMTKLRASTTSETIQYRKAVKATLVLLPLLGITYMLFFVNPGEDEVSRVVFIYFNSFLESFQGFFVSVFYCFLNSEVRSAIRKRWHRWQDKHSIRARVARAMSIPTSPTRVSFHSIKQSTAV
Test: CRF1 receptor radioligand binding assay ([125I]-oCRF competition, IMR-32 cell membranes)
Conditions: IMR-32 cell membranes, [125I]-oCRF 100 pM; read-out: Ki (CRF-1R)
How it was run: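 Buffer: Tris pH 7.2 with MgCl2, BSA, Triton X-100, aprotinin, leupeptin; reaction stopped with ice-cold wash and filtered. Nonspecific binding set with 10 μM oCRF.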

Row | Ki | SMILES
1 | < 100 nM | Cc1cc(C)c(-n2c3ncccc3n3c(CN(CC4CC4)CC(F)(F)C(F)(F)F)c(C(F)(F)F)nc23)c(C)c1 [Example 212, Cyclopropylmethyl-(2,2,3,3,3-pentafluoro-propyl)-[2-trifluoromethyl-8-(2,4,6-trimethyl-phenyl)-8H-1,3a,7,8-tetraaza-cylopenta[α]inden-3-ylmethyl]-amine]
2 | < 100 nM | Cc1cc(C)c(-n2c3ncccc3n3c(CN(CCC(F)(F)F)CC4CC4)c(C(F)(F)F)nc23)c(C)c1 [Example 213, Cyclopropylmethyl-[2-trifluoromethyl-8-(2,4,6-trimethyl-phenyl)-8H-1,3a,7,8-tetraaza-cyclopenta[α]inden-3-ylmethyl]-(3,3,3-trifluoro-propyl)-amine]
3 | < 100 nM | Cc1cc(C)c(-n2c3ncccc3n3c(CN(CC4CC4)CC4CC4)c(C(F)(F)F)nc23)c(C)c1 [Example 214, Bis-cyclopropylmethyl-[2-trifluoromethyl-8-(2,4,6-trimethyl-phenyl)-8H-1,3a,7,8-tetraaza-cyclopenta[α]inden-3-ylmethyl]-amine]
4 | < 100 nM | CCCN(Cc1c(C(F)(F)F)nc2n(-c3c(C)cc(C)cc3C)c3ncccc3n12)CC1CCC1 [Example 215, Cyclobutylmethyl-propyl-[2-trifluoromethyl-8-(2,4,6-trimethyl-phenyl)-8H-1,3a,7,8-tetraaza-cyclopenta[α]inden-3-ylmethyl]-amine]
5 | < 100 nM | Cc1cc(C)c(-n2c3ncccc3n3c(CN(CC4CCC4)CC(F)(F)F)c(C(F)(F)F)nc23)c(C)c1 [Example 216, Cyclobutylmethyl-(2,2,2-trifluoro-ethyl)-[2-trifluoromethyl-8-(2,4,6-trimethyl-phenyl)-8H-1,3a,7,8-tetraaza-cyclopenta[α]inden-3-ylmethyl]-amine]
6 | < 100 nM | CCCN(CCc1ccccc1)Cc1c(C(F)(F)F)nc2n(-c3c(C)cc(C)cc3C)c3ncccc3n12 [Example 217, Phenethyl-propyl-[2-trifluoromethyl-8-(2,4,6-trimethyl-phenyl)-8H-1,3a,7,8-tetraaza-cyclopenta[α]inden-3-ylmethyl]-amine]
7 | < 1000 nM | CCN(CCc1ccccc1)Cc1c(C(F)(F)F)nc2n(-c3c(C)cc(C)cc3C)c3ncccc3n12 [Example 218, Ethyl-phenethyl-[2-trifluoromethyl-8-(2,4,6-trimethyl-phenyl)-8H-1,3a,7,8-tetraaza-cyclopenta[α]inden-3-ylmethyl]-amine]
8 | < 1000 nM | C=CCN(CC=C)Cc1c(C(F)(F)F)nc2n(-c3c(C)cc(C)cc3C)c3ncccc3n12 [Example 219, Diallyl-[2-trifluoromethyl-8-(2,4,6-trimethyl-phenyl)-8H-1,3a,7,8-tetraaza-cyclopenta[α]inden-3-ylmethyl]-amine]
9 | < 1000 nM | C=CCN(CCC)Cc1c(C(F)(F)F)nc2n(-c3c(C)cc(C)cc3C)c3ncccc3n12 [Example 220, Allyl-propyl-[2-trifluoromethyl-8-(2,4,6-trimethyl-phenyl)-8H-1,3a,7,8-tetraaza-cyclopenta[α]inden-3-ylmethyl]-amine]
10 | < 1000 nM | CCCN(CCC(F)(F)F)Cc1c(C(F)(F)F)nc2n(-c3c(C)cc(C)cc3C)c3ncccc3n12 [Example 221, Propyl-[2-trifluoromethyl-8-(2,4,6-trimethyl-phenyl)-8H-1,3a,7,8-tetraaza-cyclopenta[α]inden-3-ylmethyl]-(3,3,3-trifluoro-propyl)-amine]
11 | < 1000 nM | CCCN(Cc1c(C(F)(F)F)nc2n(-c3c(C)cc(C)cc3C)c3ncccc3n12)CC(F)(F)F [Example 222, Propyl-(2,2,2-trifluoro-ethyl)-[2-trifluoromethyl-8-(2,4,6-trimethyl-phenyl)-8H-1,3a,7,8-tetraaza-cyclopenta[α]inden-3-ylmethyl]-amine]
12 | < 1000 nM | CCN(Cc1c(C(F)(F)F)nc2n(-c3c(C)cc(C)cc3C)c3ncccc3n12)CC1CC1 [Example 223, Cyclopropylmethyl-ethyl-[2-trifluoromethyl-8-(2,4,6-trimethyl-phenyl)-8H-1,3a,7,8-tetraaza-cyclopenta[α]inden-3-ylmethyl]-amine]
13 | < 1000 nM | CCCN(Cc1c(C(F)(F)F)nc2n(-c3c(C)cc(C)cc3C)c3ncccc3n12)CC(F)(F)C(F)(F)F [Example 224, (2,2,3,3,3-Pentafluoro-propyl)-propyl-[2-trifluoromethyl-8-(2,4,6-trimethyl-phenyl)-8H-1,3a,7,8-tetraaza-cyclopenta[α]inden-3-ylmethyl]-amine]
14 | < 1000 nM | Cc1cc(C)c(-n2c3ncccc3n3c(CN(CCC4CC4)CCC(F)(F)F)c(C(F)(F)F)nc23)c(C)c1 [Example 225, (2-Cyclopropyl-ethyl)-[2-trifluoromethyl-8-(2,4,6-trimethyl-phenyl)-8H-1,3a,7,8-tetraaza-cyclopenta[α]inden-3-ylmethyl]-(3,3,3-trifluoro-propyl)-amine]
15 | < 1000 nM | Cc1cc(C)c(-n2c3ncccc3n3c(CN(CCc4ccccc4)CCC(F)(F)F)c(C(F)(F)F)nc23)c(C)c1 [Example 226, Phenethyl-[2-trifluoromethyl-8-(2,4,6-trimethyl-phenyl)-8H-1,3a,7,8-tetraaza-cyclopenta[a]inden-3-ylmethyl]-(3,3,3-trifluoro-propyl)-amine]
16 | < 1000 nM | Cc1cc(C)c(-n2c3ncccc3n3c(CN(CCC(F)(F)F)Cc4ccccc4)c(C(F)(F)F)nc23)c(C)c1 [Example 227, Benzyl-[2-trifluoromethyl-8-(2,4,6-trimethyl-phenyl)-8H-1,3a,7,8-tetraaza-cyclopenta[α]inden-3-ylmethyl]-(3,3,3-trifluoro-propyl)-amine]
17 | < 1000 nM | Cc1cc(C)c(-n2c3ncccc3n3c(CN(C)Cc4ccccc4)c(C(F)(F)F)nc23)c(C)c1 [Example 228, Benzyl-methyl-[2-trifluoromethyl-8-(2,4,6-trimethyl-phenyl)-8H-1,3a,7,8-tetraaza-cyclopenta[α]inden-3-ylmethyl]-amine]
18 | < 1000 nM | CCN(CCC1CC1)Cc1c(C(F)(F)F)nc2n(-c3c(C)cc(C)cc3C)c3ncccc3n12 [Example 229, (2-Cyclopropyl-ethyl)-ethyl-[2-trifluoromethyl-8-(2,4,6-trimethyl-phenyl)-8H-1,3a,7,8-tetraaza-cyclopenta[α]inden-3-ylmethyl]-amine]
19 | < 1000 nM | CCCN(CCC1CC1)Cc1c(C(F)(F)F)nc2n(-c3c(C)cc(C)cc3C)c3ncccc3n12 [Example 230, (2-Cyclopropyl-ethyl)-propyl-[2-trifluoromethyl-8-(2,4,6-trimethyl-phenyl)-8H-1,3a,7,8-tetraaza-cyclopenta[α]inden-3-ylmethyl]-amine]
20 | < 1000 nM | CCCCN(CC)Cc1c(C(F)(F)F)nc2n(-c3c(C)cc(C)cc3C)c3ncccc3n12 [Example 231, Butyl-ethyl-[2-trifluoromethyl-8-(2,4,6-trimethyl-phenyl)-8H-1,3a,7,8-tetraaza-cyclopenta[α]inden-3-ylmethyl]-amine]
21 | < 1000 nM | Cc1cc(C)c(-n2c3ncccc3n3c(CN(CCC4CC4)CC(F)(F)F)c(C(F)(F)F)nc23)c(C)c1 [Example 232, (2-Cyclopropyl-ethyl)-(2,2,2-trifluoro-ethyl)-[2-trifluoromethyl-8-(2,4,6-trimethyl-phenyl)-8H-1,3a,7,8-tetraaza-cyclopenta[α]inden-3-ylmethyl]-amine]
22 | < 10000 nM | CCN(Cc1ccccc1)Cc1c(C(F)(F)F)nc2n(-c3c(C)cc(C)cc3C)c3ncccc3n12 [Example 233, Benzyl-ethyl-[2-trifluoromethyl-8-(2,4,6-trimethyl-phenyl)-8H-1,3a,7,8-tetraaza-cyclopenta[α]inden-3-ylmethyl]-amine]
23 | < 10000 nM | Cc1cc(C)c(-n2c3ncccc3n3c(CN(CCc4ccccc4)CC(F)(F)F)c(C(F)(F)F)nc23)c(C)c1 [Example 234, Phenethyl-(2,2,2-trifluoro-ethyl)-[2-trifluoromethyl-8-(2,4,6-trimethyl-phenyl)-8H-1,3a,7,8-tetraaza-cyclopenta[α]inden-3-ylmethyl]-amine]
24 | < 10000 nM | CCCCN(Cc1ccccc1)Cc1c(C(F)(F)F)nc2n(-c3c(C)cc(C)cc3C)c3ncccc3n12 [Example 235, Benzyl-butyl-[2-trifluoromethyl-8-(2,4,6-trimethyl-phenyl)-8H-1,3a,7,8-tetraaza-cyclopenta[α]inden-3-ylmethyl]-a mine]
25 | < 10000 nM | CCCN(Cc1ccccc1)Cc1c(C(F)(F)F)nc2n(-c3c(C)cc(C)cc3C)c3ncccc3n12 [Example 236, Benzyl-propyl-[2-trifluoromethyl-8-(2,4,6-trimethyl-phenyl)-8H-1,3a,7,8-tetraaza-cyclopenta[α]inden-3-ylmethyl]-amine]
26 | < 100 nM | CCc1nc2n(-c3c(C)cc(C)cc3C)c3ncccc3n2c1CN(CC1CC1)CC1CC1 [Example 246, Bis-cyclopropylmethyl-[2-ethyl-8-(2,4,6-trimethyl-phenyl)-8H-1,3a,7,8-tetraaza-cyclopenta[α]inden-3-ylmethyl]-amine]
27 | < 100 nM | CCCN(Cc1c(CC)nc2n(-c3c(C)cc(C)cc3C)c3ncccc3n12)CC1CC1 [Example 247, Cyclopropylmethyl-[2-ethyl-8-(2,4,6-trimethyl-phenyl)-8H-1,3a,7,8-tetraaza-cyclopenta[α]inden-3-ylmethyl]-propyl-amine]
28 | < 100 nM | CCc1nc2n(-c3c(C)cc(C)cc3C)c3ncccc3n2c1CN(CC)CCc1ccccc1 [Example 248, Ethyl-[2-ethyl-8-(2,4,6-trimethyl-phenyl)-8H-1,3a,7,8-tetraaza-cyclopenta[α]inden-3-ylmethyl]-phenethyl-amine]
